Tests used:
Format in all cases: cell-based
[1] = target: T1, FLAG-p38δ (Homo sapiens, UniProt O15264); experiment: TUBE1 immunoprecipitation of poly-Ub p38δ in HeLa cells; settings: 1 µM PROTAC, 3 hours
T1 construct: expressed in transfected cells; host or cells: HeLa
T1 sequence (O15264 1-365): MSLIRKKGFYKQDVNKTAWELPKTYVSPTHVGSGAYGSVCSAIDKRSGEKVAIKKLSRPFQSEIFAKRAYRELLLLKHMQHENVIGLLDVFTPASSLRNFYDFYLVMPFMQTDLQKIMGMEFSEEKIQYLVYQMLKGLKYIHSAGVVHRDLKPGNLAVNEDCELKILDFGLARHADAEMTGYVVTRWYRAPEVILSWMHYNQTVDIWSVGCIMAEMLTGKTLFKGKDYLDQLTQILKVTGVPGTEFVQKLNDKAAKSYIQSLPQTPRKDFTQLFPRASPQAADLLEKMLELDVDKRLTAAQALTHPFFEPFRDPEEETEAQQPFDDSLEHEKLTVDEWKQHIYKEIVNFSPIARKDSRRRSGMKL
Description: TUBE1 immunoprecipitation experiments were carried out exactly as described above, except for the fact that 1 mg of normalized HeLa lysate was loaded onto 20 µL TUBE1 agarose (LifeSensors) resin per sample.
WCL IP : TU B E 1 DMS SJF SJF
Supplementary Figure 7. SJFδ in d u ces p o lyu b iq u itin atio n o f p 38δ(related to F ig u re 4).
HeLa cells were co-transfected with HA-Ub and FLAG p38δ and treated with vehicle (DM SO ), 1 µM SJFα, or 1 µM SJFδ for 3 hours. Lysates were im m unoprecipitated with tandem ubiquitin binding entity (TUBE1) agarose beads and assessed by western blots detecting FLAG (p38δ).
TUBE1 binds tetra ubiquitin chains with high affinity, thereby enriching for polyubiquitinated proteins. In this assay, HA (Ub) serves as an im m unoprecipitation control for poly-Ub TUBE1 […]

[2] = target: T2, p38δ (Homo sapiens, UniProt O15264); experiment: PROTAC washout assay, p38δ; settings: 250 nM PROTAC for 24 h, then re-plated in fresh medium
T2 construct: endogenous in cells; host or cells: MDA-MB-231
T2 sequence (O15264 1-365): T1 sequence (O15264 1-365)
Description: (§1) MDA-MB-231 cells were plated at 1.5 × 10^5 cells per well in a six-well dish and allowed to adhere overnight. On the following day, all cells were treated with either vehicle (DMSO) or PROTAC (250 nM). After 24 h, cells were either harvested or washed with 1X PBS, trypsinized, and re-plated onto new six-well dishes in fresh RPMI-1640 (1 × ) media without additional compound. For these washout conditions, cells were collected every 24 h until final harvest (72 h washout).

[3] = target: T3, p38α (Homo sapiens, UniProt Q16539); experiment: PROTAC washout assay, p38α; settings: 250 nM PROTAC for 24 h, then re-plated in fresh medium
T3 construct: SJFα PROTAC (13-atom linker, amide attachment) selectively degrades p38α; endogenous in cells; host or cells: MDA-MB-231
Description: as §1

T3 sequence (Q16539 whole entry): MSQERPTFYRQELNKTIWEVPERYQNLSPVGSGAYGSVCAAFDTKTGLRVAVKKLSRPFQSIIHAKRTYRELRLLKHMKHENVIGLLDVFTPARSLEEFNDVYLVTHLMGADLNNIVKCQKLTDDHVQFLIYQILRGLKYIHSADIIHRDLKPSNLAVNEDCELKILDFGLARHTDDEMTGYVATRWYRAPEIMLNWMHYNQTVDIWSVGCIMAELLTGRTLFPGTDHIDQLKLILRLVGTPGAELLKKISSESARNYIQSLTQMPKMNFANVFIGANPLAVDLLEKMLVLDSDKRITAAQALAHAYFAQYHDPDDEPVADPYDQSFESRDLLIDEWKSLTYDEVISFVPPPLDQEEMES

Row | Compound | TUBE1-reactivity (poly-Ub p38δ) [1] | time p38δ degradation efficacy is maintained post-washout [2] [h] | time p38α degradation efficacy is maintained post-washout [3] [h]
1 | COc1cc2c(Oc3ccc(NC(=O)C4(C(=O)Nc5ccc(F)cc5)CC4)cc3F)ccnc2cc1OCCOCCOCCOc1cc(-c2scnc2C)ccc1CNC(=O)[C@@H]1C[C@@H](O)CN1C(=O)[C@H](C(C)C)N1Cc2ccccc2C1=O [SJFδ] | increased TUBE1-reactivity | 24 | –
2 | COc1cc2c(Oc3ccc(NC(=O)C4(C(=O)Nc5ccc(F)cc5)CC4)cc3F)ccnc2cc1OCCCCOCCCCOCC(=O)N[C@H](C(=O)N1C[C@H](O)C[C@H]1C(=O)NCc1ccc(-c2scnc2C)cc1)C(C)(C)C [SJFα] | – | – | 72

— publication PMC6328587 (Nature Communications, 2019)
